# Key:
# [1] = system: Salmonella strains (TA98, TA100, TA1537 and TA1535); type: cell-based; conditions: with and without rat liver S9; 4 Salmonella strains
# Method: Compounds were assessed for mutagenicity at Eurofins Panlabs. in 384-well plates using four Salmonella strains: TA98, to probe for frameshift mutation (with quercetin as control), TA100 and TA1535, to probe for base pair […] (with streptozotocin as control), and TA1537, to probe for frameshift mutations (with aminoacridine as control) as previously described.^21 Each compound was incubated at 37° C. for 96 h at four different concentrations (5, 10, 50, and 100 μM), with each concentration tested using 48 replicates, both with and without rat liver S9 metabolic activation. A concurrent bacterial cytotoxicity assay was ran at 0.6, 1.2, 2.5, 5, 10, 25, 50 and 100 μM to rule out false negatives. Bacterial cytotoxicity was expressed as percent of control growth (OD650). Compounds with growth of less than 60% control were flagged and considered bacterial cytotoxic. […] Significances of the positive counts between the treatment and control were determined using one-tailed Fisher's exact test.
# [2] = system: activating mutant bearing EGFR; experiment: KinaseProfiler enzymatic radiometric biochemical inhibition (IC50); conditions: ATP 10 μM, result in words
# Method: (§1) In vitro kinase activity (inhibitor binding constants (Kd) and biochemical inhibition (IC50's)) were assessed by Eurofins DiscoverX (Kd determinations) and Eurofins Cerep (biochemical IC50 determinations).
# [3] = system: Caco-2 cells; experiment: Caco-2 cell permeability assay; type: in vitro ADME; conditions: for efflux / permeability: result in words
# Method: (§2) Compounds were evaluated at Pharmaron Inc. for their ability to permeate Caco-2 cells and MDCKII-MDR1 cells. A 96-well HTS Transwell plate (Corning) was used for the Caco-2 and MDCKII-MDR1 cell seeding. Caco-2 cells were seeded at a density of 6.86×10^5 cells/mL and cultivated for 14-18 days prior to assays. MDCKII-MDR1 cells were seeded at a density of 1.56×10^6 cells/mL and cultivated for 4-8 days prior to assays. To determine the rate of drug transport in both the absorptive (apical to basolateral (A-B)) and secretory (basolateral to apical (B-A)) directions, compounds (5 μM in DMSO for Caco-2 cells, and 1 μM in DMSO for MDCKII-MDR1 cells) were added to the donor wells. Plates were incubated at 37° C. for 2 h and samples (50 μL) were taken at the beginning and end of the incubation in both the donor and acceptor wells with the assay run in duplicate (n=2). Samples were analyzed by LC-MS/MS. The apparent permeability coefficient (Papp) in units (cm/s×10^−6) was calculated using the following equation.
# (§3) where, VA represents the volume (mL) in the acceptor well. Area is the surface of the membrane (0.143 cm^2 for Transwell-96 well plate) and time is the total transport time in sec.
# (§4) The efflux ratio was determined using the following equation: Efflux ratio=Papp (B-A)/Papp(A-B)
# (§5) Where, Papp (B-A) indicates the apparent permeability in the basolateral to apical direction, and Papp (A-B) indicates the apparent permeability in the apical to basolateral direction.
# [4] = target: activating mutant bearing EGFR; experiment: KINOMEScan KdELECT inhibitor binding constants (Kd); conditions: result in words
# Method: as §1
# [5] = system: MDCKII-MDR1 cells; experiment: MDCKII-MDR1 cell permeability assay; type: in vitro ADME, canine
# Method: as §2, §3, §4, §5
Compound,mutagenicity in AMES fluctuation assay [1],biochemical inhibition (IC50) [2],enhancement in permeability compared to 1 [3] [fold],efflux [3],inhibitor-binding constants (Kd) [4],increase in permeability compared to 1 [5],efflux ([5]; result in words),permeability [3],permeability ([5]; result in words)
"COc1cc2ncnc(Nc3ccc(F)c(Cl)c3)c2cc1OCCCN1CCOCC1 [Compound 1, Gefitinib, reference compound]",neither 1 or 6 were mutagenic,,,,,,,,
"COc1cc2ncnc(Nc3ccc(F)c(Cl)c3)c2cc1OCCON1CCOCC1 [Compound 6, N-(3-chloro-4-fluorophenyl)-7-methoxy-6-(2-(morpholinooxy)ethoxy)quinazolin-4-amine]",neither 1 or 6 were mutagenic,single-digit nanomolar,14,greatly decreased efflux,single-digit nanomolar,roughly 4 fold,decreased efflux,,
"COc1cc2ncnc(Nc3cccc(Cl)c3F)c2cc1OCCON1CCOCC1 [Compound 13, N-(3-chloro-2-fluorophenyl)-7-methoxy-6-(2-(morpholinooxy)ethoxy)quinazolin-4-amine]",,,,reduced efflux ratios,,,low efflux,remarkably enhanced permeability,excellent permeability
"COc1cc2ncnc(Nc3ccc(F)c(Cl)c3)c2cc1OCCON1CCN(C)CC1 [Compound 14, N-(3-chloro-4-fluorophenyl)-7-methoxy-6-(2-((4-methylpiperazin-1-yl)oxy)ethoxy)quinazolin-4-amine]",,,,high efflux,,,,low permeability,
